Test results as given in US20080131310A1, “Methods for determining effectiveness of waste water tank deodorizers and synthetic waste compositions for use in said methods” (Fuller Brush Company, Inc., priority 2006, published 2008).
Marks after values point to notes of the source that are not given here.

System: Escherichia coli strain K12 (ATCC 25253)
Experiment: Inhibitive evaluation: hydrogen sulfide generation in synthetic waste water media inoculated with E. coli
Format: cell-based
Settings: for H2S in ppm vs. contact times, 24 Hours: 24 hours contact time; for H2S in ppm vs. contact times, 48 Hours: 48 hours contact time; for H2S in ppm vs. contact times, 72 Hours: 72 hours contact time
Experimental: An experiment was conducted to evaluate the effectiveness of recreational vehicle (Black) waste water tank deodorizer in preventing […] degradation processes that result in unpleasant odors. The effectiveness of the tank deodorizer was evaluated through the inhibition of growth using an E. Coli within a synthetic waste water media. This comparison of the respective products inhibition was over selected time periods from 5 to 7 days.
500 grams total of synthetic soil media was prepared having the following ingredients:
RV biodegradable toilet paper (small pieces) . . . 5.0 g • With the exception of the oatmeal and toilet paper, the above ingredients were mixed together and heated to 55° C. with constant mixing for 15 to 20 minutes. The oatmeal and toilet paper were then added and thoroughly mixed in. Mixture is allowed to cool to room temperature, then transferred to the waste water tank/digester test vessel.
Escherichia coli strain K12 (ATCC 25253) was employed.
1. To build up the count of microbes, using a 48-hour Nutrient Broth culture incubated at 37° C. of the E. Coli or other selected organism, the culture must be on at least the fourth consecutive 24-hour transfer before using. Have one tube of the 48-hour culture available for each of the test vessels.
2. Before inoculating the surrogate black waste water tank test vessel containing the synthetic soil media, the number of organisms being utilized was verified to achieve a range no less than a count of log^8 per milliliter. Serial dilutions of the E. coli culture were prepared as follows:
a.) Tube • #1. 1.0 ml organism culture+9.0 ml Nutrient Broth=1/10 • #2. 1.0 ml tube #1 dilution+9.0 ml Nutrient Broth=1/10^−2 • #3. 1.0 ml tube #2 dilution+9.0 ml Nutrient Broth=1/10^−3 • #4. 1.0 ml tube #3 dilution+9.0 ml Nutrient Broth=1/10^−4 • #5. 1.0 ml tube #4 dilution+9.0 ml Nutrient Broth=1/10^−5 • #6. 1.0 ml tube #5 dilution+9.0 ml Nutrient Broth=1/10^−6 • #7. 1.0 ml tube #6 dilution+9.0 ml Nutrient Broth=1/10^−7 • #8. 1.0 ml tube #7 dilution+9.0 ml Nutrient Broth=1/10^−8 • *Note: each dilution was thoroughly mixed before transferring to the next tube. b.) Each dilution was plated by the pour plate method. 1.0 ml of dilution was plated with 10.0 ml TGY pour plate agar. Plates were incubated at 37° C. for 48 hrs before reading for enumeration.
3. Specified amounts of test subject deodorizer from the chart below were added to the test vessel containing the 500 grams of the synthetic soil media and mix thoroughly to assure uniform distribution.
4. 5.0 ml of the E. coli culture from step #1 were added to the test vessel and thoroughly mixed to assure uniform distribution. This brought the organism count to a range to greater than 1.0×10^4 cfu/ml in the 500 g of synthetic soil media.
5. Caps were placed on the test vessels and the vessels were stored at a temperature of 80° F. during the 5 day or more evaluation period. Note: Tests may be performed at various temperatures at the discretion of the investigator. For example, 100° F. incubation may be used to reflect very high summer temperature test environments.
6. At 24 hrs contact time, handling was in such a manner as to minimize movement of the container and sewage inside. The cap was quickly removed from the test vessel and the holding cradle containing the H2S monitor was placed over the mouth of the test vessel for 4 minutes. During the 4 minute testing period the container was maintained as still as possible. • *Note: monitor must be zeroed before each reading taken.
7. After 4 minute of testing was completed, the monitor and cradle were removed from the mouth of the vessel and the cap replaced. Peak gas readings in ppm of H2S were recorded. Steps 6 & 7 were repeated for each test vessel in set.
8. Steps (6-7) were repeated for each of the remaining contact times of 48 hrs, 72 hrs, 96 hrs, 120 hrs. It should be noted that other times could be adopted for standardization of the protocol and that these times are simply preferred. […]

[1] = 0.78 ml/500 g synthetic soil media (8 oz per 40 gal tank), 80° F., peak head space reading, >5 ppm unacceptable

Row | Compound | H2S in ppm vs. contact times, 24 Hours [1] [ppm] | H2S in ppm vs. contact times, 48 Hours [1] [ppm] | H2S in ppm vs. contact times, 72 Hours [1] | H2S in ppm vs. contact times, 96 Hours (96 hours contact time, 0.78 ml/500 g synthetic soil media (8 oz per 40 gal tank), 80° F., peak head space reading, >5 ppm unacceptable) [ppm] | H2S in ppm vs. contact times, 120 Hours (120 hours contact time, 0.78 ml/500 g synthetic soil media (8 oz per 40 gal tank), 80° F., peak head space reading, >5 ppm unacceptable) [ppm] | Performance in H2S inhibition compared with the Aqua Kem control (over 120 hours, 0.78 ml/500 g synthetic soil media)
1 | O=[N+]([O-])C(Br)(CO)CO [Bronopol, 2-bromo-2-nitropropane-1,3-diol] | 0 | 0 | 0 ppm | 0 | 0 | The * indicates when each active had reached the unacceptable level of odor value. The two best performing actives that were equal to or near the performance of the Aqua Kem control were the Bronopol and Neolone M-10.
2 | C1N2CN3CN1CN(C2)C3 [Hexamethylene-Tetramine] | 2 | 2 | 48* ppm |  |  | 
